Literature values, collected in US8778914B2, “Bisphosphonate-prodrugs” (priority 2009, dated 2014).
Numbered stars: 1 amine (or outer) side, 2 acyl side, 3 side chain; on linkers, the order of the positions; unused ones are H or OH. Square brackets hold non-standard residues; d marks the D form. Side chains are listed from the residue outwards. Peptide text beside a SMILES is read from it. * marks the point of attachment. DAMPA = CN(Cc1cnc2nc(N)nc(N)c2n1)c1ccc(C(=O)*)cc1; Hexanoyl(6-maleimido) = O=C1C=CC(=O)N1CCCCCC(=O)*; γGlu = O=C(O)[C@H](CCC(=O)[*:2])N[*:1]

Tests used:
Cathepsin B = Cathepsin B (Homo sapiens, UniProt P07858); conditions: releases (gamma-MTX); reported in A. Warnecke et al., Arch. Pharm. 2007
plasmin = plasmin (Homo sapiens, UniProt P00747); conditions: releases (gamma-MTX); reported in A. Warnecke et al., Arch. Pharm. 2007
Chain of plasmin (P00747 581-810 limits assumed, species assumed): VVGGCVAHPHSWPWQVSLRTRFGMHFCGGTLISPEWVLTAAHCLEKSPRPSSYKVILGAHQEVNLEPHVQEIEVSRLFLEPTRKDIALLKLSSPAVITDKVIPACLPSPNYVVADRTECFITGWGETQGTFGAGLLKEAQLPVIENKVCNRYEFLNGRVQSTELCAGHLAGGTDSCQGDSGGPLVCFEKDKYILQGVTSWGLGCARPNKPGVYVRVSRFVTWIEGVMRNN
Chain of plasmin (P00747 97-580 partner limits assumed, species assumed): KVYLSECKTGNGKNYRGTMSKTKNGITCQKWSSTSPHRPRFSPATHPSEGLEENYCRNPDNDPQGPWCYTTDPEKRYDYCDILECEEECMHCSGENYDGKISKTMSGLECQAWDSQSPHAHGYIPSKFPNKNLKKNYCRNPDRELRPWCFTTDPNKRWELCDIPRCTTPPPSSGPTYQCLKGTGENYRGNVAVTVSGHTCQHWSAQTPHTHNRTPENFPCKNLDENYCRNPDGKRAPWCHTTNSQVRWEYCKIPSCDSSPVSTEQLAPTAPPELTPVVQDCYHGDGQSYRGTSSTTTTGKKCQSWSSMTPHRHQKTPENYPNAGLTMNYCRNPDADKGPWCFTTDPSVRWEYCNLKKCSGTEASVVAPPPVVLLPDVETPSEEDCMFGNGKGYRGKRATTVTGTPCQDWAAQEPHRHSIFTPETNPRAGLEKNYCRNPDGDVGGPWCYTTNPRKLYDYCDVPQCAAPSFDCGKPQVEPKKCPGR

[1] = pH 5.0; F. Kratz et al., J. Med. Chem. 2002

Row | Compound | cleavage by Cathepsin B (Cathepsin B) | cleavage by plasmin (plasmin) | acid-sensitive cleavage, release of doxorubicin [1]
1 | C[C@@H](NC(=O)CCCCCN1C(=O)C=CC1=O)C(=O)N[C@@H](Cc1ccccc1)C(=O)N[C@@H](CCCCN)C(=O)N[C@@H](CCCCNC(=O)CC[C@H](NC(=O)c1ccc(N(C)Cc2cnc3nc(N)nc(N)c3n2)cc1)C(=O)O)C(=O)O [EMC-D-Ala-Phe-Lys-Lys-(gamma-MTX)-OH] ({Hexanoyl(6-maleimido)}-[dA]FKK([γGlu-DAMPA])-OH) | cleaved between Lys-Lys | cleaved between Lys-Lys | 
2 | COc1cccc2c1C(=O)c1c(O)c3c(c(O)c1C2=O)C[C@@](O)(/C(CO)=N/NC(=O)CCCCCN1C(=O)C=CC1=O)C[C@@H]3O[C@H]1C[C@H](N)[C@H](O)[C@H](C)O1 [DOXO-EMCH, 6-maleimidocaproylhydazone derivative of doxorubicin] |  |  | cleavable
